From paper PMC4464647, “ANO1 (TMEM16A) in pancreatic ductal adenocarcinoma (PDAC)” (Pflugers Archiv, 2014)
d = 2'-deoxy (DNA)

Columns and labels:
CaCC current = biological target: T1, CaCC current (Homo sapiens, UniProt Q5XXA6); assay: Whole-cell patch-clamp of CaCC currents in PDAC cells, 1 μM Ca2+ in pipette solution; type: cell-based; settings: for decrease of CaCC currents: siRNA 50 nM, compared to scrambled siRNA (MOCK)
T1 construct: Whole-cell patch-clamp recordings identified large Ca^2+ and voltage-dependent Cl^− currents in PDAC cells; endogenous in cells; host or cells: Capan-1, AsPC-1, BxPC-3 (human PDAC cell lines, ATCC)
T1 sequence (Q5XXA6 1-986): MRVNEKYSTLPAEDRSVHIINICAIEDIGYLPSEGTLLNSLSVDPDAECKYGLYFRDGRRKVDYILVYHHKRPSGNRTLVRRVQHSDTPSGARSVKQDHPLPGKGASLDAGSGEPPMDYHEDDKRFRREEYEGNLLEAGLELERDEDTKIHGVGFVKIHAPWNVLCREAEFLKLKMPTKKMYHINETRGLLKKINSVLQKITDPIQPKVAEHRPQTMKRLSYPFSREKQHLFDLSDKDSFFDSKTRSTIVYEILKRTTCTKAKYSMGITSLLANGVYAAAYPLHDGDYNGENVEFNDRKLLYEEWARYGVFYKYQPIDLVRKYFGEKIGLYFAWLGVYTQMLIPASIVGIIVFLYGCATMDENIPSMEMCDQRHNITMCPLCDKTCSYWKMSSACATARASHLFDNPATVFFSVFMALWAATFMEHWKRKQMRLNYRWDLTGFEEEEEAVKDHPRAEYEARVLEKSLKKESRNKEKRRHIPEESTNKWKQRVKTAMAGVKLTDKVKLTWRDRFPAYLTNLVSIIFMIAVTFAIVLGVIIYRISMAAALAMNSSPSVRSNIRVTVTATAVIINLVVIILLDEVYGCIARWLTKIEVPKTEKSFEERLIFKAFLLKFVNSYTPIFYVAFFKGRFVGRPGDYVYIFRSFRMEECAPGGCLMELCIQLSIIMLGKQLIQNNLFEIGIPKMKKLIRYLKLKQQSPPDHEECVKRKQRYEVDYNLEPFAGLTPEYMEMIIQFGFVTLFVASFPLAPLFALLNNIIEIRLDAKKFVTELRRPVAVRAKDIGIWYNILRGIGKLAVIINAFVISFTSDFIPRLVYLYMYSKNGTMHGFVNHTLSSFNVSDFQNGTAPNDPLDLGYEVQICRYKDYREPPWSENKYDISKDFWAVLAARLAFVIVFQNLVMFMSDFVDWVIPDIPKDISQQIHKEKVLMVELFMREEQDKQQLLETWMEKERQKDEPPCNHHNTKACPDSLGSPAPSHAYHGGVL
Experimental: Cells were grown on poly-L-lysine coated coverslips. For knockdown experiments, cells were transfected with siRNA targeting ANO1 or scrambled siRNA shortly after complete attachment of the cells (approx. 3 h after plating). Currents were measured 36–48 h after transfection. Whole-cell patch-clamp recordings were performed using the Axopatch 200B amplifier interfaced to a Digidata 1440A controlled by pClamp10 software (Molecular Devices, USA). Analogue signals were acquired at 2.5 kHz and filtered at 1 kHz. […] An agar bridge made of 3 % agar and 97 % of the bath solution containing NMDG-Cl (below) was used as reference electrode. Current activations were recorded from an output holding potential, V out = 0 mV with ramp protocols spanning from −100 to 100 mV over 1 s and run continuously with 15-s intervals. Step protocols between −100 to 120 mV were generated from V out = 0 mV with step increments of 20 mV and lengths of 2 s. Liquid junction potentials (V lj) were estimated as described in [10] with membrane potentials calculated as, V m = V out − V lj. Series resistance was compensated by 60–70 %. All recordings were performed at room temperature (18–23 °C). Instantaneous currents were measured 1 ms after each voltage step. The data was fitted using the Goldman–Hodgkin–Katz (GHK) current equation.1 ICl^−=Pz^2F^2V/RTCo−Cie^zFV/RT/1−e^zFV/RT
One micromolar free Ca^2+ pipette solution include the following (in mM): 100 CsAsp, 40 CsCl, 4.34 CaCl2, 4 Na2ATP, 1 MgCl2, 5 EGTA, 10 HEPES, pH 7.2, osmolality 295 mosmol/kg or 0 μM free Ca^2+ solution containing no CaCl2 and 10 mM EGTA. Standard bath solution include the following (in mM): 150 NaCl, 1.5 CaCl2, 1 MgCl2, 10 glucose, 10 HEPES, pH 7.4, osmolality 315 mosmol/kg (adjusted with D-mannitol). Isotonic solution include the following (in mM): 85 NaCl, 2 MgCl2, 1.5 CaCl2, 10 glucose, 10 HEPES, pH 7.4, of osmolality 315 mosmol/kg (adjusted with D-mannitol). The hypotonic solution with osmolality of 210 mosmol/kg was obtained by omitting D-mannitol from the isotonic solution. For experiments testing efficiency of an inhibitor, NaCl was replaced by N-methyl-D-glucamine chloride (NMDG-Cl) after seal formation. All osmolalities were measured in a Wescor Vapro model 5520 osmometer (Wescor Inc., USA) calibrated by the manufacturer’s Optimol standard solutions.
Whole-cell patch-clamp recordings with 1 μM Ca^2+ in pipette solution. a Representative current traces measured in Capan-1 cells upon exposure to different inhibitors. b Quantification of CaCC currents at +67 mV recorded with inhibitors compared to currents in presence of DMSO; currents of siANO1 cells were compared to those of MOCK transfected cells. c Steady-state I–V relationships of cells transfected with either scrambled siRNA (MOCK) or siRNA targeting ANO1. d Densitometric quantification of Western blot analysis of siRNA knockdown. β-Actin was used as a loading control. (n) = number of individual experiments

[1] = system: bronchial epithelial cells; design: method as in Scudieri et al. [39]; settings: ref Scudieri et al. [39], cited from earlier work

Row | Molecule | decrease of CaCC currents (CaCC current; AsPC-1 cells) [%] | decrease of CaCC currents (CaCC current; BxPC-3 cells) [%] | decrease of CaCC currents (CaCC current; Capan-1 cells) [%] | inhibition at 20 µM (CaCC current; ASPC1, AsPC-1 cells, inhibitor 20 μM, at +67 mV, vs DMSO) [%] | inhibition of CaCC current (CaCC current; BxPC-3 cells, inhibitor 20 μM, at +67 mV, vs DMSO) | inhibition at 20 µM (CaCC current; Capan-1 cells, inhibitor 20 μM, at +67 mV, vs DMSO) [%] | inhibition of Ca2+-activated Cl− secretion ([1]; 10 μM) | UTP-induced Cl− secretion in short-circuit current recordings ([1]; cells prior exposed to 10 μM)
1 | siRNA targeting ANO1: Predesigned siRNA oligo from Sigma-Aldrich, 5′-CCUUCAACGUCAGUGACUU[dT][dT]-3′, 5′-AAGUCACUGACGUUGAAGG[dT][dT]-3′ (RNA, 3' dTdT, backbone not given here) | 89 ± 51 | 84 ± 23 | 88 ± 42 | – | – | – | – | –
2 | CCc1c(C)nc(SCC(=O)Nc2nc(-c3ccc(OC)cc3)cs2)[nH]c1=O [T16Ainh-A01, 2-[(5-Ethyl-1,6-dihydro-4-methyl-6-oxo-2-pyrimidinyl)thio]-N-[4-(4-methoxyphenyl)-2-thiazolyl]acetamide] | – | – | – | 29 ± 2 | ineffective | 43 ± 8 | relatively weak inhibition | significantly attenuated
